What was measured:
PCSK9 [1] = target: T1, PCSK9 (Homo sapiens, UniProt Q8NBP7); assay: Fluorescence polarization competition binding assay (probe: compound of Example 57); conditions: 2 μM PCSK9, 50 nM compound of Example 57 as probe, overnight incubation; read-out: FP IC
Method in brief: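 Competition fluorescence-polarization binding: 2 μM PCSK9 with 50 nM fluorescent probe in 20 mM HEPES pH 7.5, 150 mM NaCl, 1 mM CaCl2, 0.005% P-20, incubated with test compound overnight in the dark. Anisotropy read; % inhibition relative to DMSO wells and probe-without-PCSK9 wells.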

PCSK9 [2] = target: T1, PCSK9; assay: Differential scanning calorimetry (DSC) assay, direct binding / thermal stabilization of PCSK9; conditions: Tm(with compound)−Tm(no compound); 2 μM PCSK9, 300 μM test compound
Method in brief: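 Thermal stabilization of 2 μM PCSK9 with or without 300 μM compound in 25 mM HEPES pH 7.5, 150 mM NaCl, 1 mM CaCl2, 3.75% DMSO. Sample heated 20–80 °C at 200 °C/hr against buffer reference. Protein Tm derived from each thermogram.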

T1 sequence (Q8NBP7 153-692): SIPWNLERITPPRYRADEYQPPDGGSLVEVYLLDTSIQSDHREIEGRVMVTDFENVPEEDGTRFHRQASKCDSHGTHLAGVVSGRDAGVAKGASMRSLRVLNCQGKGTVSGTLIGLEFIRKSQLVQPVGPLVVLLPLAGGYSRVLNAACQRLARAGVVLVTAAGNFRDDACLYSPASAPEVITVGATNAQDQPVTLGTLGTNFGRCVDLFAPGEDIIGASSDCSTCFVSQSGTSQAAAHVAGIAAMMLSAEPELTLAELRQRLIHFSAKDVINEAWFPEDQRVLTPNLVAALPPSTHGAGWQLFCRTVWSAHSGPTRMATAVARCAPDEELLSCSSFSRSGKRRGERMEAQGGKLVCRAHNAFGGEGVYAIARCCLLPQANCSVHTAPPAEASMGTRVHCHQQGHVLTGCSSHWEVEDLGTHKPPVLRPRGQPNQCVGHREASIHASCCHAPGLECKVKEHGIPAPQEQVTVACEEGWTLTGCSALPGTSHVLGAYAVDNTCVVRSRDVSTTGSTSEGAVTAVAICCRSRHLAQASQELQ

Row | Compound | IC50 (PCSK9 [1]) [µM] | ΔTm at 300 µM (PCSK9 [2]) [°C] | DSC ΔTm (PCSK9 [2]) [°C]
1 | COc1ccccc1C(=O)Nc1ccccc1-n1cc(C(=O)NCc2cn(CCOc3cc4c(cc3Oc3ccc(C(=O)O)c(F)c3)[C@@](C)(CC(=O)Nc3nccs3)NCC4)nn2)nc1C [Example 52, (R)-2-fluoro-4-((6-(2-(4-((1-(2-(2-methoxybenzamido)phenyl)-2-methyl-1H-imidazole-4-carboxamido)methyl)-1H-1,2,3-triazol-1-yl)ethoxy)-1-methyl-1-(2-oxo-2-(thiazol-2-ylamino)ethyl)-1,2,3,4-tetrahydroisoquinolin-7-yl)oxy)benzoic acid] | 0.778 | 5.58 | –
2 | C[C@]1(CC(=O)Nc2nccs2)NCCc2cc(OCCn3cc(C(O)C(N)C(=O)O)nn3)c(Oc3ccc(C(=O)O)c(F)c3)cc21 (stereo partly drawn) [Example 53, 4-(((1R)-6-(2-(4-(2-amino-2-carboxy-1-hydroxyethyl)-1H-1,2,3-triazol-1-yl)ethoxy)-1-methyl-1-(2-oxo-2-(thiazol-2-ylamino)ethyl)-1,2,3,4-tetrahydroisoquinolin-7-yl)oxy)-2-fluorobenzoic acid] | 0.823 | 6.96 | –
3 | C[C@]1(CC(=O)Nc2nccs2)NCCc2cc(OCc3ccccn3)c(Oc3ccc(C(=O)O)c(F)c3)cc21 [Example 65, (R)-2-fluoro-4-((1-methyl-1-(2-oxo-2-(thiazol-2-ylamino)ethyl)-6-(pyridin-2-ylmethoxy)-1,2,3,4-tetrahydroisoquinolin-7-yl)oxy)benzoic acid] | 0.299 | 7.31 | –
4 | C[C@]1(CC(=O)Nc2nccs2)NCCc2cc(OCC3CCCCO3)c(Oc3ccc(C(=O)O)c(F)c3)cc21 (stereo partly drawn) [Example 66, 2-fluoro-4-(((1R)-1-methyl-1-(2-oxo-2-(thiazol-2-ylamino)ethyl)-6-((tetrahydro-2H-pyran-2-yl)methoxy)-1,2,3,4-tetrahydroisoquinolin-7-yl)oxy)benzoic acid] | 0.395 | – | 9.14
5 | C[C@]1(CC(=O)Nc2nccs2)NCCc2cc(OCC3CCCO3)c(Oc3ccc(C(=O)O)cc3)cc21 (stereo partly drawn) [Example 67, 4-(((1R)-1-methyl-1-(2-oxo-2-(thiazol-2-ylamino)ethyl)-6-((tetrahydrofuran-2-yl)methoxy)-1,2,3,4-tetrahydroisoquinolin-7-yl)oxy)benzoic acid] | 0.42 | 7.31 | –
6 | COCCOc1cc2c(cc1Oc1ccc(C(=O)O)cc1)[C@@](C)(CC(=O)Nc1nccs1)NCC2 [Example 69, (R)-4-((6-(2-methoxyethoxy)-1-methyl-1-(2-oxo-2-(thiazol-2-ylamino)ethyl)-1,2,3,4-tetrahydroisoquinolin-7-yl)oxy)benzoic acid] | 0.541 | 7.65 | –
7 | COC(=O)c1ccc(Oc2cc3c(cc2OCC2CCCCO2)CCN[C@]3(C)CC(=O)Nc2nccs2)cc1F (stereo partly drawn) [Example 72, methyl 2-fluoro-4-(((1R)-1-methyl-1-(2-oxo-2-(thiazol-2-ylamino)ethyl)-6-((tetrahydro-2H-pyran-2-yl)methoxy)-1,2,3,4-tetrahydroisoquinolin-7-yl)oxy)benzoate] | 0.68 | 6.15 | –
8 | Cn1nccc1NC(=O)c1ccc(Oc2cc3c(cc2OCC2CCCCO2)CCN[C@]3(C)CC(=O)Nc2nccs2)cc1F (stereo partly drawn) [Example 73, 2-fluoro-4-(((1R)-1-methyl-1-(2-oxo-2-(thiazol-2-ylamino)ethyl)-6-((tetrahydro-2H-pyran-2-yl)methoxy)-1,2,3,4-tetrahydroisoquinolin-7-yl)oxy)-N-(1-methyl-1H-pyrazol-5-yl)benzamide] | 0.632 | 6.66 | –
9 | CC(C)(C)c1cc(NC(=O)c2ccc(Oc3cc4c(cc3OCC3CCCCO3)CCN[C@]4(C)CC(=O)Nc3nccs3)cc2F)[nH]n1 (stereo partly drawn) [Example 76, N-(3-(tert-butyl)-1H-pyrazol-5-yl)-2-fluoro-4-(((1R)-1-methyl-1-(2-oxo-2-(thiazol-2-ylamino)ethyl)-6-((tetrahydro-2H-pyran-2-yl)methoxy)-1,2,3,4-tetrahydroisoquinolin-7-yl)oxy)benzamide] | 0.535 | 7.92 | –
10 | C[C@]1(CC(=O)Nc2nccs2)NCCc2cc(OCc3ncccc3F)c(Oc3cccc(F)c3)cc21 [Example 84, (R)-2-(7-(3-fluorophenoxy)-6-((3-fluoropyridin-2-yl)methoxy)-1-methyl-1,2,3,4-tetrahydroisoquinolin-1-yl)-N-(thiazol-2-yl)acetamide] | 0.943 | 6.32 | –

The remaining molecules from weak to strong by IC50 (PCSK9 [1]), led by results:

Row | IC50 (PCSK9 [1]) [µM] | ΔTm at 300 µM (PCSK9 [2]) [°C] | DSC ΔTm (PCSK9 [2]) [°C] | Compound
11 | 0.878 | 5.82 | – | C[C@]1(CC(=O)Nc2nccs2)NCCc2cc(OCCn3cc(C(O)CN)nn3)c(Oc3ccc(C(=O)O)c(F)c3)cc21 (stereo partly drawn) [Example 55, 4-(((1R)-6-(2-(4-(2-amino-1-hydroxyethyl)-1H-1,2,3-triazol-1-yl)ethoxy)-1-methyl-1-(2-oxo-2-(thiazol-2-ylamino)ethyl)-1,2,3,4-tetrahydroisoquinolin-7-yl)oxy)-2-fluorobenzoic acid]
12 | 0.852 | 5.2 | – | C[C@]1(CC(=O)Nc2nccs2)NCCc2cc(OCc3ccccn3)c(Oc3cccc(F)c3)cc21 [Example 83, (R)-2-(7-(3-fluorophenoxy)-1-methyl-6-(pyridin-2-ylmethoxy)-1,2,3,4-tetrahydroisoquinolin-1-yl)-N-(thiazol-2-yl)acetamide]
13 | 0.837 | – | 5.98 | Cc1ccc(C2C(C(=O)O)c3ccccc3C(=O)N2c2cccc(-c3cn(CCOc4cc5c(cc4Oc4ccc(C(=O)O)c(F)c4)[C@@](C)(CC(=O)Nc4nccs4)NCC5)nn3)c2)cc1 (stereo partly drawn) [Example 54, 2-(3-(1-(2-(((R)-7-(4-carboxy-3-fluorophenoxy)-1-methyl-1-(2-oxo-2-(thiazol-2-ylamino)ethyl)-1,2,3,4-tetrahydroisoquinolin-6-yl)oxy)ethyl)-1H-1,2,3-triazol-4-yl)phenyl)-1-oxo-3-(p-tolyl)-1,2,3,4-tetrahydroisoquinoline-4-carboxylic acid]
14 | 0.823 | 6.76 | – | C[C@]1(CC(=O)Nc2nccs2)NCCc2cc(OCC3CCCCO3)c(Oc3cccc(F)c3)cc21 (stereo partly drawn) [Example 79, 2-((1R)-7-(3-fluorophenoxy)-1-methyl-6-((tetrahydro-2H-pyran-2-yl)methoxy)-1,2,3,4-tetrahydroisoquinolin-1-yl)-N-(thiazol-2-yl)acetamide]
15 | 0.79 | 7.08 | – | C[C@]1(CC(=O)Nc2nccs2)NCCc2cc(OCC3CCCCO3)c(Oc3ccc(C(=O)Nc4n[nH]c5ncccc45)c(F)c3)cc21 (stereo partly drawn) [Example 74, 2-fluoro-4-(((1R)-1-methyl-1-(2-oxo-2-(thiazol-2-ylamino)ethyl)-6-((tetrahydro-2H-pyran-2-yl)methoxy)-1,2,3,4-tetrahydroisoquinolin-7-yl)oxy)-N-(1H-pyrazolo[3,4-b]pyridin-3-yl)benzamide]
16 | 0.721 | 7.47 | – | C[C@]1(CC(=O)Nc2nccs2)NCCc2cc(OCC3CCCO3)c(Oc3cccc(F)c3)cc21 (stereo partly drawn) [Example 82, 2-((1R)-7-(3-fluorophenoxy)-1-methyl-6-((tetrahydrofuran-2-yl)methoxy)-1,2,3,4-tetrahydroisoquinolin-1-yl)-N-(thiazol-2-yl)acetamide]
17 | 0.645 | 6.36 | – | COC(=O)c1ccc(Oc2cc3c(cc2OCc2ncccn2)CCN[C@]3(C)CC(=O)Nc2nccs2)cc1F [Example 71, methyl (R)-2-fluoro-4-((1-methyl-1-(2-oxo-2-(thiazol-2-ylamino)ethyl)-6-(pyrimidin-2-ylmethoxy)-1,2,3,4-tetrahydroisoquinolin-7-yl)oxy)benzoate]
18 | 0.604 | – | 6.67 | C[C@]1(CC(=O)Nc2nccs2)NCCc2cc(OCC3CCCCO3)c(Oc3ccc(C(=O)Nc4n[nH]c5ncccc45)c(F)c3)cc21 (stereo partly drawn) [Example 78, 2-fluoro-4-(((1R)-1-methyl-1-(2-oxo-2-(thiazol-2-ylamino)ethyl)-6-((tetrahydro-2H-pyran-2-yl)methoxy)-1,2,3,4-tetrahydroisoquinolin-7-yl)oxy)-N-(1H-pyrazolo[3,4-b]pyridin-3-yl)benzamide]
19 | 0.529 | 6.03 | – | C[C@]1(CC(=O)Nc2nccs2)NCCc2cc(OCC3CCCCO3)c(Oc3ccc(C(=O)O)c(F)c3)cc21 (stereo partly drawn) [Example 62, 2-fluoro-4-(((1R)-1-methyl-1-(2-oxo-2-(thiazol-2-ylamino)ethyl)-6-((tetrahydro-2H-pyran-2-yl)methoxy)-1,2,3,4-tetrahydroisoquinolin-7-yl)oxy)benzoic acid]
20 | 0.477 | 7.56 | – | C[C@]1(CC(=O)Nc2nccs2)NCCc2cc(OCc3ncccn3)c(Oc3ccc(C(=O)O)c(F)c3)cc21 [Example 68, (R)-2-fluoro-4-((1-methyl-1-(2-oxo-2-{thiazol-2-ylamino)ethyl)-6-(pyrimidin-2-ylmethoxy)-1,2,3,4-tetrahydroisoquinolin-7-yl)oxy)benzoic acid]
21 | 0.294 | 7.83 | – | C[C@]1(CC(=O)Nc2nccs2)NCCc2cc(OCC(=O)O)c(Oc3ccc(C(=O)O)c(F)c3)cc21 [Example 64, (R)-4-((6-(carboxymethoxy)-1-methyl-1-(2-oxo-2-(thiazol-2-ylamino)ethyl)-1,2,3,4-tetrahydroisoquinolin-7-yl)oxy)-2-fluorobenzoic acid]
22 | 0.17 | 9.62 | – | COc1cccc(NC(=O)C[C@@]2(C)NCCc3cc(OCC4CCCCO4)c(Oc4ccc(-c5ccc(C(=O)O)cc5)c(F)c4)cc32)c1 (stereo partly shown) [Example 85]
23 | 0.00117 | 6.18 | – | COc1cccc(NC(=O)C[C@@]2(C)NCCc3cc(OCC4CCCCO4)c(Oc4ccc(Br)c(F)c4)cc32)c1 (stereo partly drawn) [Example 86, 2-((1R)-7-(4-bromo-3-fluorophenoxy)-1-methyl-6-((tetrahydro-2H-pyran-2-yl)methoxy)-1,2,3,4-tetrahydroisoquinolin-1-yl)-N-(3-methoxyphenyl)acetamide]
